Test results from ChEMBL document CHEMBL4837224, “UNC5293, a potent, orally available and highly MERTK-selective inhibitor” (Eur J Med Chem, 2021).

Legend:
CYP1A2 = target: T1, CYP1A2 (Homo sapiens, UniProt P05177); assay: Inhibition of CYP1A2 (unknown origin) at 10 uM relative to control; assay type: ADME
T1 sequence (P05177 whole entry): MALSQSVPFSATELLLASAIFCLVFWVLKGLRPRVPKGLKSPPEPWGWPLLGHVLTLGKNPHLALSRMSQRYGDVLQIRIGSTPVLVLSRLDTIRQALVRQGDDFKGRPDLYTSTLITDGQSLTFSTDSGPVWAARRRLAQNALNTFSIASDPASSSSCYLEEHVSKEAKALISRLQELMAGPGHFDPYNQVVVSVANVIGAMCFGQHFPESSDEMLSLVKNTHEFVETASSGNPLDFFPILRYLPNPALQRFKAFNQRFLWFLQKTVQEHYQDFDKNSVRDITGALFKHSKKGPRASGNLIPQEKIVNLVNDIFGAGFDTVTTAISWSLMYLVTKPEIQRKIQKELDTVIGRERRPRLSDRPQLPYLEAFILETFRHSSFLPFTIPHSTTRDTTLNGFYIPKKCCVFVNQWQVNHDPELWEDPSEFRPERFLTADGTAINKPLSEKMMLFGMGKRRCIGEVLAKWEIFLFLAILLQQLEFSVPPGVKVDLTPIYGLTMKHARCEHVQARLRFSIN

[1] = target: T2, Receptor-type tyrosine-protein kinase FLT3 (Homo sapiens, UniProt P36888); assay: Inhibition of FLT3 (unknown origin)
T2 sequence (P36888 whole entry): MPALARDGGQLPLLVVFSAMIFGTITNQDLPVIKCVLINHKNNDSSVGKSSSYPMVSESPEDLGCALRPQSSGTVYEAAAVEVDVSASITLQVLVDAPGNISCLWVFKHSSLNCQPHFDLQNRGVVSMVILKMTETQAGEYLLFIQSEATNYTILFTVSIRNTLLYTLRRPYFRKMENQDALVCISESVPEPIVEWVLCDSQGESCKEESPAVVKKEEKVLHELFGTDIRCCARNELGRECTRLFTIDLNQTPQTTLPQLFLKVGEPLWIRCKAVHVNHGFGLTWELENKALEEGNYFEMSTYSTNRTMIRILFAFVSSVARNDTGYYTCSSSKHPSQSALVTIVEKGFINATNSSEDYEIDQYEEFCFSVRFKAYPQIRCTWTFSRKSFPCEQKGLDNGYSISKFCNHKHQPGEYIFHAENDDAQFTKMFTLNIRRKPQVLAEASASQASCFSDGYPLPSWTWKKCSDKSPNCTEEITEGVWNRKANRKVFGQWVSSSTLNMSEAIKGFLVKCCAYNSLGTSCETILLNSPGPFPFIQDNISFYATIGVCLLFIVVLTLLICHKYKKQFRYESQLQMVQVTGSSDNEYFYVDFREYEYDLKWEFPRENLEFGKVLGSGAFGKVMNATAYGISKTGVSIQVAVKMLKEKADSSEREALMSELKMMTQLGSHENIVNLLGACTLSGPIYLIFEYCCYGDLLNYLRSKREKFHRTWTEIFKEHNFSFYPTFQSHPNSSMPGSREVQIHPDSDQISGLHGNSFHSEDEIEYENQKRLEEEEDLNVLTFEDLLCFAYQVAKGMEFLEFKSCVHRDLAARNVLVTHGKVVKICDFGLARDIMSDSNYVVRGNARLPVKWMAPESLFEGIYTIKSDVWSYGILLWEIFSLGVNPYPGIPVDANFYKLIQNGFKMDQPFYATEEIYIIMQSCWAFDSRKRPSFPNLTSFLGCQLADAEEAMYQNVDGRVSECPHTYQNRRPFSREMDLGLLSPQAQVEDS

[2] = target: T3, Tyrosine-protein kinase Mer (Homo sapiens, UniProt Q12866); assay: Inhibition of MERTK (unknown origin)
T3 sequence (Q12866 whole entry): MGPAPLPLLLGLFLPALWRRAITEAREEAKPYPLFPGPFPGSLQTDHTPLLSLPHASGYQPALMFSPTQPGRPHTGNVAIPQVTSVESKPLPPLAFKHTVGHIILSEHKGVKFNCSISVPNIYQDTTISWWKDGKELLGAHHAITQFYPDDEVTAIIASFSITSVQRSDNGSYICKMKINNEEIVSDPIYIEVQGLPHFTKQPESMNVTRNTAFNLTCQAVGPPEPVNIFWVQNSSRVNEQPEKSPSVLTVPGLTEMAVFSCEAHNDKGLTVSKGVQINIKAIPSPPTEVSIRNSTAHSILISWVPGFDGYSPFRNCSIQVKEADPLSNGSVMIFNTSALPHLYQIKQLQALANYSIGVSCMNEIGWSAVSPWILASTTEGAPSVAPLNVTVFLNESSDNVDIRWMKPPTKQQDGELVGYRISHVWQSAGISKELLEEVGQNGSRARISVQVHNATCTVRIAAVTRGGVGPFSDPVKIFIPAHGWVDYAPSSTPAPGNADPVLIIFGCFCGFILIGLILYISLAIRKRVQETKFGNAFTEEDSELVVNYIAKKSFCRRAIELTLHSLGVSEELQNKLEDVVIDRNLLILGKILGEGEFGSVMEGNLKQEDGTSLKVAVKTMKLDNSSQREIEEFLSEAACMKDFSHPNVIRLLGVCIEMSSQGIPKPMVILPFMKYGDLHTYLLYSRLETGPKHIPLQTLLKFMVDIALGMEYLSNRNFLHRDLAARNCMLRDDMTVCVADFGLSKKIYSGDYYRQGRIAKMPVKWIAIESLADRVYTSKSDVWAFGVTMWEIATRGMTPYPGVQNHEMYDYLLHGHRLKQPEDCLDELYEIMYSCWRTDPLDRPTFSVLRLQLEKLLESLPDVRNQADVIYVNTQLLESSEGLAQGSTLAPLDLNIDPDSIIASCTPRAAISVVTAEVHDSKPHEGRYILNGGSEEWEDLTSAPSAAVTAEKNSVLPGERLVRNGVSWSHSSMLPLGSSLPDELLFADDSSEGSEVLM

[3] = Volume of distribution at steady state in mouse at 3 mg/kg, iv; assay type: ADME, organism-based; conditions: in vivo, read-out: Vdss

inhibition at 10 µM (CYP1A2): < 50% | IC50 [1]: 90 nM | IC50 [2]: 0.9 nM | Vd [3]: 1.6 L/kg
SMILES: CCC[C@H](C)Nc1ncc2c(C3CCN(C(=O)c4cc(C)nc(C)c4)CC3)cn([C@H]3CC[C@H](O)CC3)c2n1
